# Assay results reported in PubChem BioAssay (NCI).
#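 48-hour exposure; five concentrations; linearly interpolated endpoints. TGI denotes the concentration required for complete inhibition of growth.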
# How the values were obtained:
# Test in all cases: inhibition of tumour cell growth, NCI panel, 48 h
# HCC-2998 colon = system: HCC-2998 colon
# SW-620 colon = system: SW-620 colon
# MDA-MB-435 = system: MDA-MB-435
# PC-3 prostate = system: PC-3 prostate
# MDA-N = system: MDA-N
# HOP-62 NSCLC = system: HOP-62 NSCLC
# HOP-92 NSCLC = system: HOP-92 NSCLC
# ACHN renal = system: ACHN renal
# MOLT-4 leukemia = system: MOLT-4 leukemia
# UO-31 renal = system: UO-31 renal
# COLO 205 colon = system: COLO 205 colon
# SK-OV-3 ovarian = system: SK-OV-3 ovarian
# SR leukemia = system: SR leukemia
# RXF 393 renal = system: RXF 393 renal
# SF-539 CNS = system: SF-539 CNS
# BT-549 breast = system: BT-549 breast
SMILES,TGI (HCC-2998 colon) [µM],TGI (SW-620 colon) [µM],TGI (MDA-MB-435) [µM],TGI (PC-3 prostate) [µM],TGI (MDA-N) [µM],TGI (HOP-62 NSCLC) [µM],TGI (HOP-92 NSCLC) [µM],TGI (ACHN renal) [µM],TGI (MOLT-4 leukemia) [µM],TGI (UO-31 renal) [µM],TGI (COLO 205 colon) [µM],TGI (SK-OV-3 ovarian) [µM],TGI (SR leukemia) [µM],TGI (RXF 393 renal) [µM],TGI (SF-539 CNS) [µM],TGI (BT-549 breast) [µM]
COC1/C=C/C(C)C(C(C)C(OC)C(C)CCC(=O)C(C)C(CC(=O)O)OC)OC(=O)/C=C/C=C(\C)CC(OC)CC2=CC(=O)O[C@H](C2)C(C)C(OC)CC(OC)/C=C/C(C)C(OC)C1 (some centres undefined),> 4.35,> 4.35,> 4.35,3.1,> 4.35,> 4.35,1.32,> 4.35,> 4.35,1.22,> 4.35,> 4.35,> 4.35,,,
CN(C(=O)c1ccc(OCCCC(=O)O)c(Cl)c1Cl)C1CCCC1,> 100,> 100,,,,> 100,> 100,,> 100,> 100,> 100,> 100,,> 100,> 100,
CCOC(=O)C1(Br)S(=O)(=O)OCCOS1(=O)=O,> 100,> 100,,,,> 100,> 100,> 100,> 100,> 100,> 100,> 100,> 100,> 100,> 100,
CC1(C)OC(=O)C(Cc2ccccc2)(Cc2ccccc2)C(=O)O1,> 100,> 100,,> 100,> 100,> 100,,> 100,> 100,> 100,> 100,> 100,> 100,> 100,> 100,> 100
O=c1ccnc2ccc3n[nH][nH]c3c12,> 100,> 100,,,,> 100,> 100,> 100,> 100,,> 100,> 100,,> 100,> 100,
COC(=O)C1=C(CCC[C@H](C)O[Si](C)(C)C(C)(C)C)NC(=O)N2[C@@H](CCO)CC[C@H]12,,42.5,39.7,,,27.7,28.4,30.3,> 100,29.7,34,30.4,,27.5,31.6,28.4
COc1cccc(NC(=O)C(=O)C2C=CCS2(=O)=O)c1 (centres undefined),> 100,> 100,,,,> 100,,> 100,> 100,> 100,> 100,> 100,> 100,> 100,> 100,
COc1c2c(cc3c1C(=O)Cc1ccc4c(c1CN(C)CC3)OCO4)OCO2,> 100,> 100,,,,> 100,> 100,> 100,> 100,> 100,> 100,> 100,> 100,> 100,> 100,
N#Cc1c(O)c2ccccc2[nH]c1=O,> 100,> 100,> 100,> 100,> 100,> 100,> 100,> 100,> 100,> 100,> 100,> 100,,> 100,> 100,
CCOC(=O)C(=O)NC12CC3CC(CC(C3)C1)C2,> 100,> 100,,,,> 100,> 100,> 100,,> 100,> 100,> 100,,> 100,> 100,
COC(=O)C1(C)NCCc2c1[nH]c1ccccc21 (centres undefined),> 100,> 100,,,,> 100,> 100,,> 100,> 100,> 100,> 100,> 100,> 100,> 100,
CCCN(CCC)C1=Nc2ccccc2-n2cnnc2C1,,> 100,,,,> 100,,> 100,> 100,> 100,> 100,,> 100,> 100,> 100,
O=C1/C(=C/c2ccc(Cl)cc2)CSC/C1=C\c1ccc(Cl)cc1,4.09,13.4,,16,10.6,16.2,43.2,12.6,9,3.93,7.26,16.5,8.15,3.36,9.26,4.99
CNC(=O)NS(=O)(=O)c1ccc(C)cc1,,> 100,,> 100,> 100,> 100,> 100,> 100,> 100,> 100,> 100,> 100,,> 100,> 100,> 100
COc1cc(C=O)cc(O)c1O,> 100,> 100,,,,> 100,,> 100,> 100,> 100,> 100,> 100,> 100,,> 100,
O=C1O/C(=C\c2ccc(O)cc2)C(c2ccc(O)c(Cl)c2)=C1Cl,89.9,> 100,81.7,> 100,68,> 100,60.6,> 100,> 100,> 100,> 100,> 100,> 100,73,> 100,
CSCCC(C(=O)O)N(CC1(O)OCC(O)C(O)C1O)N=O (centres undefined),> 100,> 100,,,,> 100,> 100,> 100,> 100,> 100,> 100,> 100,,> 100,> 100,
O=C(C/C=C/c1ccccc1)c1ccccc1,33.4,> 100,42.5,,50.9,73.7,> 100,35.8,61.6,28.2,56.6,> 100,49.9,34,56.6,
N#Cc1ccc(C2NN=CC23C(=O)c2ccccc2OC3c2ccccc2)cc1 (centres undefined),> 100,> 100,> 100,> 100,,> 100,,> 100,> 100,96.8,38,> 100,> 100,> 100,> 100,
